Values of other authors as cited in patent US20190167675A1, “METHODS AND COMPOSITIONS FOR APPETITE CONTROL AND WEIGHT MANAGEMENT” (SHANGHAI YAO YUAN BIOTECHNOLOGY CO., LTD., priority 2016, published 2019).
Like-named read-outs stand apart in the source and are kept apart here.

Tests used:
[1] = system: ASICs; details: Rat DRG neurons, in vitro; cited from earlier work
[2] = guinea pig TPD model; cited from earlier work
[3] = target: T1, ENaC (Homo sapiens, UniProt P37088+P51168+P51170); details: in vitro and in vivo; cited from earlier work
T1 sequence (P37088 1-669): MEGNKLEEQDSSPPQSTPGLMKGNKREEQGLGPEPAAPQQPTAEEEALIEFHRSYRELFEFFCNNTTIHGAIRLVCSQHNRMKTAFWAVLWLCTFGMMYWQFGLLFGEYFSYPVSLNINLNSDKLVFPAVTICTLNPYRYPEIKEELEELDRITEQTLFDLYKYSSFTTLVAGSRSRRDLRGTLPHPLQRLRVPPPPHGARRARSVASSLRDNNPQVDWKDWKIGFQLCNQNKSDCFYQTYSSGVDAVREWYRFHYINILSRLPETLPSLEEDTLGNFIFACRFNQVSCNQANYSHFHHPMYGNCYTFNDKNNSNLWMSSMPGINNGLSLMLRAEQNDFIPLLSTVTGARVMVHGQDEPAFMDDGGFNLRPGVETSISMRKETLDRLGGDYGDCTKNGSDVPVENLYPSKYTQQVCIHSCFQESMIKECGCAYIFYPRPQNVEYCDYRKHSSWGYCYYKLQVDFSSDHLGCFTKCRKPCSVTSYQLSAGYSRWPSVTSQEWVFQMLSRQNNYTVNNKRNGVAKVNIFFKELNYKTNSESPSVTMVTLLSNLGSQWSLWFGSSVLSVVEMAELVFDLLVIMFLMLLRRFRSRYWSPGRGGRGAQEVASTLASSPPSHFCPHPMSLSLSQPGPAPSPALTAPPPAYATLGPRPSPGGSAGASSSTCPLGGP
T1 sequence (P51168 1-640): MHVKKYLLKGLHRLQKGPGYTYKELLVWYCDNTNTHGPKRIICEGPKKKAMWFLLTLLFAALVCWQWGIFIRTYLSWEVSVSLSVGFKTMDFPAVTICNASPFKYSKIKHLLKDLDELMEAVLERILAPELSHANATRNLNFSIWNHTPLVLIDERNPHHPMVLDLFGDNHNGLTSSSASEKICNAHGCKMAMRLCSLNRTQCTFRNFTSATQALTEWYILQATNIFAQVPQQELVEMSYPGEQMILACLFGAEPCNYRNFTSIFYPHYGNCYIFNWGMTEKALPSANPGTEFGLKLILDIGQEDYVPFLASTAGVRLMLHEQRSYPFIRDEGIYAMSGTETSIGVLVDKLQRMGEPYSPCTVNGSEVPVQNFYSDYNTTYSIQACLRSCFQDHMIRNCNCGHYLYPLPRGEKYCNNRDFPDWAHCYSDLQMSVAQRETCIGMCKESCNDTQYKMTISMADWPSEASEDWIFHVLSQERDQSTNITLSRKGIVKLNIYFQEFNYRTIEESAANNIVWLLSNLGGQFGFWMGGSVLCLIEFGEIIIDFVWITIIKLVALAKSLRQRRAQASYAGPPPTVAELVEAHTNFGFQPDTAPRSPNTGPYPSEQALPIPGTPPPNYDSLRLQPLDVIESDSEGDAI
T1 sequence (P51170 1-649): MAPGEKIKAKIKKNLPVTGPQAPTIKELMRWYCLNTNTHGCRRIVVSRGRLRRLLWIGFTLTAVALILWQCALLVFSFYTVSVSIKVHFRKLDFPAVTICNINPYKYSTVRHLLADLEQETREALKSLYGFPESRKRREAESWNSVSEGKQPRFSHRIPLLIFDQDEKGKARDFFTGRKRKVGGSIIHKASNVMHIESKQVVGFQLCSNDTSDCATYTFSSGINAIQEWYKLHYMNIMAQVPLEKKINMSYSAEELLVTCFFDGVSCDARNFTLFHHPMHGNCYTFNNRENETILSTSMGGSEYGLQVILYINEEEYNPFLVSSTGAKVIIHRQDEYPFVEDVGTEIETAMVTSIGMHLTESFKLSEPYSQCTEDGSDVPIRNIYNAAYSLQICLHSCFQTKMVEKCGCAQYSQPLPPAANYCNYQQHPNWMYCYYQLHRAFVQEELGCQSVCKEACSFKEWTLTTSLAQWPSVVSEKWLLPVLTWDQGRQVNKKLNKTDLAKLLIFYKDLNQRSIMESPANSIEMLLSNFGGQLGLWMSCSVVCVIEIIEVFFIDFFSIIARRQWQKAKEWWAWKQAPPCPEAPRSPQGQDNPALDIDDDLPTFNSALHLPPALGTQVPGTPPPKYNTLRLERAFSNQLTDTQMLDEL

[4] = system: ENaC; details: pig AEC type II cells; cited from earlier work
[5] = system: ENaC; details: dog AEC type II cells; cited from earlier work
[6] = target: T2, ENaC (Rattus norvegicus, UniProt P37089+P37090+P37091); details: rat AEC type II cells; cited from earlier work
T2 construct: amiloride-sensitive Na+ currents (via ENaC) in rat, dog, and pig AEC type II cells; endogenous in cells; host or cells: rat AEC type II cells
T2 sequence (P37089 1-698): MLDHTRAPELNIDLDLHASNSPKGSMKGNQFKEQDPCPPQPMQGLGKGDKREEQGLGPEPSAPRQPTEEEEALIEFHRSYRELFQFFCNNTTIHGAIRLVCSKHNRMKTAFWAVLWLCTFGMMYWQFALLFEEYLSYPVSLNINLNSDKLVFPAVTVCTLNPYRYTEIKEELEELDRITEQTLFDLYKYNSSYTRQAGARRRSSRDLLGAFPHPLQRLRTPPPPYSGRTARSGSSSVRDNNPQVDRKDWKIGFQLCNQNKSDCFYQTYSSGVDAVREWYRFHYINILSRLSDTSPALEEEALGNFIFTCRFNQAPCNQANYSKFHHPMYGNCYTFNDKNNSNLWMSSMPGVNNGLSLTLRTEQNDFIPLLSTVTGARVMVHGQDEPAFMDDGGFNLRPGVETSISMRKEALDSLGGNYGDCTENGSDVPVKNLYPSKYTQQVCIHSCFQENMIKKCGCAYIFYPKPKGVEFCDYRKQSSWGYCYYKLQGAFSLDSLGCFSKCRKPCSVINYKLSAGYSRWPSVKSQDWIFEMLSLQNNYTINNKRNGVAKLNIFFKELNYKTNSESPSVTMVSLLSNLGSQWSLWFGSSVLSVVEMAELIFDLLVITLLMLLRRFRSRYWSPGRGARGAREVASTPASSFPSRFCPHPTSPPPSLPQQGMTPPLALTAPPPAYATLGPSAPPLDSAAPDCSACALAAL
T2 sequence (P37090 1-638): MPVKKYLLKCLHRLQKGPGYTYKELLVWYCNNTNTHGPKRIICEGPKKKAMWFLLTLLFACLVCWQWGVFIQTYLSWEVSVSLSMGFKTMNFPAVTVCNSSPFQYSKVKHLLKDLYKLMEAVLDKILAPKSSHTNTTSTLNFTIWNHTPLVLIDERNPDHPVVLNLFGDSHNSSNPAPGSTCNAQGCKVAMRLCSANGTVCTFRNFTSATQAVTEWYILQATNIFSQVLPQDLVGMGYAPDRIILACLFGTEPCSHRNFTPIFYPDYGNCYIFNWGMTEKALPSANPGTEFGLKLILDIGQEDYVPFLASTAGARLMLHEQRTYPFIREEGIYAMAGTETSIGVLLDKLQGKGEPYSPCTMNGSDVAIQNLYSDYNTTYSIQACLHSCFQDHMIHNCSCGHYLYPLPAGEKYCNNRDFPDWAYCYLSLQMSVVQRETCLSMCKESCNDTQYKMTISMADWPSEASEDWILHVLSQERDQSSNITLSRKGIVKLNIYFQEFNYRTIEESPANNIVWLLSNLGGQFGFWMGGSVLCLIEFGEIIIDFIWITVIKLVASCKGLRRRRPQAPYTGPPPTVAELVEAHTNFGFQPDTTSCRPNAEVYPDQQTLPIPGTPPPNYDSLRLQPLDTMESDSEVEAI
T2 sequence (P37091 1-650): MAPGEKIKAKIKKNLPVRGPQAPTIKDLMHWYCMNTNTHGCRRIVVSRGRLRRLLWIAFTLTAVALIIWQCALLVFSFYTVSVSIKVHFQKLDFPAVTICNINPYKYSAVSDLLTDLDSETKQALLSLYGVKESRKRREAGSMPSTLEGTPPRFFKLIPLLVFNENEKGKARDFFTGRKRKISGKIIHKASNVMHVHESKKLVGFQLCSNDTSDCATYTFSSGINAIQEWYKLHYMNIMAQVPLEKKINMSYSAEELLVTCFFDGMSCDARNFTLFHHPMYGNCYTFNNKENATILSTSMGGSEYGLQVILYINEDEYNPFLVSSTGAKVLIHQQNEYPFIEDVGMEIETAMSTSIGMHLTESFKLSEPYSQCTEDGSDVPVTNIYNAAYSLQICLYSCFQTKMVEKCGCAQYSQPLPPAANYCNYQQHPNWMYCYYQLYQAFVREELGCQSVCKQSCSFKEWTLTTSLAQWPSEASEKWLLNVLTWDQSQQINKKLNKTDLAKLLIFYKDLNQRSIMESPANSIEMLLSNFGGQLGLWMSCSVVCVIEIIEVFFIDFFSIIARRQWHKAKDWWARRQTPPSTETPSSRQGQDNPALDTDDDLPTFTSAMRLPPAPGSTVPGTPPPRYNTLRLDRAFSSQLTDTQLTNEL

[7] = target: T3, homomeric ASIC1a (Homo sapiens, UniProt P78348); details: cited from earlier work
T3 sequence (P78348 1-528): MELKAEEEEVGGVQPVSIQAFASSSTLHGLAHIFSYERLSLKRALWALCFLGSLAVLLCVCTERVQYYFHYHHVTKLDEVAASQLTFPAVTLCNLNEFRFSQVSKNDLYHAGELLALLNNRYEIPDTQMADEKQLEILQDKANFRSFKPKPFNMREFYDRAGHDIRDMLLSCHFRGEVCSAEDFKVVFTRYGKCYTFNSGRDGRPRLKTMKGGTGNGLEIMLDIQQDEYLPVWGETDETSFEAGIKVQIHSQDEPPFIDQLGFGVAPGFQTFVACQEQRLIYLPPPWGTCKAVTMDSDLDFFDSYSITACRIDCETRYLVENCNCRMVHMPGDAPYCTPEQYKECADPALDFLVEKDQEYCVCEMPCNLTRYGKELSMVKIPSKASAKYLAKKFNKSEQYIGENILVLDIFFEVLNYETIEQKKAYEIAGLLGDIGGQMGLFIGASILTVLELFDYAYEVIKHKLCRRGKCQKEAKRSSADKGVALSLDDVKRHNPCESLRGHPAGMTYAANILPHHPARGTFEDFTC

[8] = mice; i.t., i.c.v., intraplantar or intravenous; cited from earlier work
[9] = target: T4, heteromeric ASIC1a/2b (Homo sapiens, UniProt P78348+Q16515); details: cited from earlier work
T4 sequence (P78348 1-528): T3 sequence (P78348 1-528)
T4 sequence (Q16515 1-563 isoform Q16515-2): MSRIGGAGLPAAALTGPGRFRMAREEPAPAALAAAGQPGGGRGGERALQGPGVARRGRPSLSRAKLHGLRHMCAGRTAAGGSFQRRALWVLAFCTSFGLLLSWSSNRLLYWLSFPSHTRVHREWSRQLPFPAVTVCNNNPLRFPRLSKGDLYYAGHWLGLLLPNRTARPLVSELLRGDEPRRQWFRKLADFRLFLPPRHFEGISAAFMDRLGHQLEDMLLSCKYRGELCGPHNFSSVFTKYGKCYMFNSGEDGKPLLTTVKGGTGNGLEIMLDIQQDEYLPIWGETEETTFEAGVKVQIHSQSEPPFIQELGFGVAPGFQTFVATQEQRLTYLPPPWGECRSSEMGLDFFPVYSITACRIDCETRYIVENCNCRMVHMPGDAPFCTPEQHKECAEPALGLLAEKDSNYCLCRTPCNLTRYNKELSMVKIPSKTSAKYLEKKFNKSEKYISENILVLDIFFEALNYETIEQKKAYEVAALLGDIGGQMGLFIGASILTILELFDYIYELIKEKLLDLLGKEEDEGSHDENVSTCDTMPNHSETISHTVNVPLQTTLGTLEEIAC

## CC(C)C1c2cc(C3CC3c3ccc4cc(C(=N)N)ccc4c3)ccc2CCN1C (stereo not drawn) [A-317567]
[1]
  potency relative to Amiloride on ASICs currents: 1.8-15 fold

## N=C(NC(=O)c1nc(Cl)c(N)nc1N)NC1CCN(C(=O)c2ccc(C(=O)N3CCC(NC(=N)NC(=O)c4nc(Cl)c(N)nc4N)CC3)cc2)CC1 [NVP-QBE170]
[2]
  safety window over existing ENaC blockers, in terms of hyperkalaemia: significantly enhanced safety window
[3]
  blockage of ENaC: potent and selective blockage of ENaC

## AP301: ENaC activator; human TNF-α-derived cyclic peptide composed of 17 natural amino acids
[4]
  increase of amiloride-sensitive Na+ currents versus baseline: ~16 fold
[5]
  increase of amiloride-sensitive Na+ currents versus baseline: ~13 fold
[6]
  increase of amiloride-sensitive Na+ currents versus baseline: about 9 fold

## PcTx1
[7]
  inhibition of homomeric ASIC1a: nanomolar potency
[8]
  excitotoxicity, spasms, convulsions, motor paralysis, ataxia upon in vivo injections: never produce excitotoxicity, spasms, convulsions, motor paralysis, nor ataxia
[9]
  inhibition of heteromeric ASIC1a/2b: nanomolar potency
